Measurements reported in paper PMC7588595, “Small-molecule active pharmaceutical ingredients of approved cancer therapeutics inhibit human aspartate/asparagine-β-hydroxylase” (Bioorganic & Medicinal Chemistry, 2020).
Counter-ions that a name gives are not always drawn. Like-named read-outs stand apart in the source and are kept apart here.

Key:
[1] = molecular target: T1, human AspH (His6-AspH315–758) (Homo sapiens, UniProt Q12797); experiment: SPE-MS AspH inhibition assay (hFX-CP101-119 substrate hydroxylation); assay type: biochemical
T1 construct: N-Terminally His6-tagged human AspH315–758 (His6-AspH315–758) was produced in Escherichia coli BL21 (DE3) cells; made in house; host or cells: Escherichia coli BL21 (DE3), pET-28a(+) vector
T1 sequence (Q12797 315-758): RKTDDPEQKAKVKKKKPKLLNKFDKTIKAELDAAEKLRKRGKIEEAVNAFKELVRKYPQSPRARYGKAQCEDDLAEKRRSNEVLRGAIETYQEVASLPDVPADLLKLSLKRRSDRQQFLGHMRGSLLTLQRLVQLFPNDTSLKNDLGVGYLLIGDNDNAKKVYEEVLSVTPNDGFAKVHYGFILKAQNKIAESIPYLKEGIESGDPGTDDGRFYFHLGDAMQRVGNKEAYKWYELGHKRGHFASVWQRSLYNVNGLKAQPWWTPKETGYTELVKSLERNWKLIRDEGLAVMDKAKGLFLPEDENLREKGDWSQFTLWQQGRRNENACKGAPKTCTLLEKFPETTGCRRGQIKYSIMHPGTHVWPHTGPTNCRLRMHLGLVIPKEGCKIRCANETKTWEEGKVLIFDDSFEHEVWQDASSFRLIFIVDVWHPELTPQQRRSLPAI

His6-AspH315–758 = molecular target: T2, His6-AspH315–758 (Homo sapiens, UniProt Q12797); experiment: AspH differential scanning fluorimetry (DSF) assay, melting temperature shift; assay type: binding; details: 40 μM inhibitor, 4 μM His6-AspH315–758, with respect to DMSO controls
T2 construct: A mixture of SYPRO orange (1‰v/v) and His6-AspH315–758 (4 μM) in 50 mM aqueous HEPES buffer; made in house; host or cells: Escherichia coli BL21 (DE3), pET-28a(+) vector
T2 sequence (Q12797 315-758): T1 sequence (Q12797 315-758)
Experimental: A mixture of SYPRO orange (1‰v/v) and His6-AspH315–758 (4 μM) in 50 mM aqueous HEPES buffer (pH 7.5, 150 mM NaCl, 50 μM NiCl2) was carefully pipetted into a 96-well VWR PCR-plate (38 μL per well). An inhibitor solution (0.8 mM in DMSO) or a negative control sample (pure DMSO) was added to each well (2 μL per well, final inhibitor concentration of 40 μM) and the resulting solutions were gently mixed using a pipette. The plate was sealed with optical tape (Bio-Rag, iCycler iQ), centrifuged (5 sec, 1000 rpm) and placed into a C1000Touch Thermal Cycler equipped with a CFX96 Real-Time System (Bio-Rad). The instrument was heated with a rate of 1 °C per cycle (starting at an initial temperature of 25 °C; 70 cycles total). Data were analyzed using Microsoft Excel and GraphPad Prism according to the literature.[107] DSF assays were performed in independent duplicates, each composed of technical duplicates (Supporting Fig. S4).

[2] = AspH-inhibitor screening, 384-well Plate 1
[3] = AspH-inhibitor screening, 384-well Plate 1, substrate conversion
[4] = AspH-inhibitor screening, Plate 1-duplicate
[5] = AspH-inhibitor screening, Plate 1-duplicate, substrate conversion

| Compound | Plate 1 (% inhibition) [1, 2] | Plate 1 (% conversion) [1, 3] | Plate 1-duplicate (% inhibition) [1, 4] | Plate 1-duplicate (% conversion) [1, 5] | further results |
| --- | --- | --- | --- | --- | --- |
| CN[C@@H]1C[C@H]2O[C@@](C)([C@@H]1OC)n1c3ccccc3c3c4c(c5c6ccccc6n2c5c31)C(=O)N[C@H]4O [UCN-01] | 3.15% | 48.30% | -0.80% | 52.44% | – |
| Oc1ncc(N(CCCl)CCCl)c(O)n1 [Uracil mustard] | – | – | – | – | Plate 1 (% conversion) [1]: 47.47%; Plate 1 (% inhibition) [1]: 4.95%; Plate 1-duplicate (% conversion) [1]: 46.70%; Plate 1-duplicate (% inhibition) [1]: 10.76% |
| CC(=O)OC[C@H]1O[C@@H](n2ccc(=O)[nH]c2=O)[C@H](OC(C)=O)[C@@H]1OC(C)=O [Uridine triacetate] | 4.05% | 47.88% | 7.04% | 48.55% | – |
| N#Cc1ccc(COC[C@H]2O[C@@H](n3c(NCc4ccc(Cl)c(Cl)c4)nc4c(N)ncnc43)[C@H](O)[C@@H]2O)cc1 [VER 155008] | 10.19% | 45.05% | 7.21% | 48.47% | – |
| CCc1c(C(=O)C(N)=O)c2c(OCC(=O)O)cccc2n1Cc1ccccc1 [Varespladib] | 9.84% | 45.21% | 8.14% | 48.01% | – |
| CCCS(=O)(=O)Nc1ccc(F)c(C(=O)c2c[nH]c3ncc(-c4ccc(Cl)cc4)cc23)c1F [Vemurafenib, reference compound] | – | 12.12% | – | 12.00% | IC50 ([1]; 50 nM His6-AspH315–758, 1 μM hFX-CP101–119, 100 μM LAA, 3 μM 2OG, 2 μM FAS, 50 mM HEPES pH 7.5, 20 °C, read-out: IC50): 12.9 ± 1.6 µM; remaining activity at 20 µM ([1]; 20 μM fixed inhibitor concentration): ~20%; Hill coefficient of AspH inhibition curves ([1]; dose-response curves of SPE-MS AspH inhibition assay): < -2.0; IC50 ([1]; read-out: IC50 at 10 μM substrate, 10 μM hFX-CP101–119 and 10 μM 2OG instead of 1 μM hFX-CP101–119 and 3 μM 2OG): 16.9 ± 4.4 µM; IC50 ([1]; read-out: IC50 at 20 μM Fe(II), 20 μM Fe(II) instead of 2 μM Fe(II)): 10.5 ± 1.9 µM; IC50 ([1]; read-out: IC50 at 200 μM 2OG, 200 μM 2OG instead of 3 μM 2OG): 15.1 ± 0.2 µM |
| CC[C@]1(O)C[C@H]2CN(CCc3c([nH]c4ccccc34)[C@@](C(=O)OC)(c3cc4c(cc3OC)N(C=O)[C@H]3[C@@](O)(C(=O)OC)[C@H](OC(C)=O)[C@]5(CC)C=CCN6CC[C@]43[C@@H]65)C2)C1.O=S(=O)(O)O [Vincristine Sulfate (Oncovin)] | 7.89% | 46.11% | 3.90% | 50.11% | – |
| O=P(O)(O)C(O)(Cn1ccnc1)P(=O)(O)O [Zoledronic acid] | 19.60% | 40.70% | 13.13% | 45.53% | – |
| O=C(O)c1ccnc(C(=O)O)c1 [pyridine-2,4-dicarboxylic acid] | – | – | – | – | Plate 1 (% inhibition) ([1]; 100 uM 2,4-PDCA controls, columns 23, 24, Plate 1): 101.14%; Plate 1-duplicate (% inhibition) ([1]; 100 uM 2,4-PDCA controls, columns 23, 24, Plate 1-duplicate): 99.94% |
| AT 101 | 102.80% | 2.28% | 99.60% | 2.64% | – |
| AZ 3146 | -12.15% | 55.36% | 4.56% | – | – |
| AZD4547 | -11.19% | 54.92% | -5.75% | 54.89% | – |
| Bleomycin sulfate | 98.37% | 4.32% | 96.60% | 4.13% | – |
| KX2-391 | 2.59% | 48.55% | 1.17% | 51.46% | – |
| Mithramycin A [reference compound] | – | – | – | – | Tm-shift (ΔTm) of AspH (His6-AspH315–758): 0.4 ± 0.2 °C |
| VX-11e | – | – | – | – | Plate 1 (% conversion) [1]: 33.84%; Plate 1 (% inhibition) [1]: 34.46%; Plate 1-duplicate (% conversion) [1]: 36.75%; Plate 1-duplicate (% inhibition) [1]: 30.84% |

Now from value to compound, other results behind:

| Plate 1 (% inhibition) [1, 2] | Plate 1 (% conversion) [1, 3] | Plate 1-duplicate (% inhibition) [1, 4] | Plate 1-duplicate (% conversion) [1, 5] | Compound | further results |
| --- | --- | --- | --- | --- | --- |
| 16.50% | 42.13% | 5.73% | 49.20% | CCCC(CCC)C(=O)O [Valproic acid] | – |
| -2.24% | 50.79% | -16.67% | 60.31% | CCCCC(=O)OCC(=O)[C@]1(O)Cc2c(O)c3c(c(O)c2[C@@H](O[C@H]2C[C@H](NC(=O)C(F)(F)F)[C@H](O)[C@H](C)O2)C1)C(=O)c1c(OC)cccc1C3=O [Valrubicin] | – |
| -0.26% | 49.87% | 1.85% | 51.12% | COc1cc2c(Nc3ccc(Br)cc3F)ncnc2cc1OCC1CCN(C)CC1 [Vandetanib] | – |
| 7.55% | 46.26% | 6.67% | 48.73% | Clc1ccc(Nc2nnc(Cc3ccncc3)c3ccccc23)cc1 [Vatalanib] | – |
| -22.64% | 60.21% | -30.80% | 67.31% | CC[C@]1(O)C[C@@H]2CN(CCc3c([nH]c4ccccc34)[C@@](C(=O)OC)(c3cc4c(cc3OC)N(C)[C@H]3[C@@](O)(C(=O)OC)[C@H](OC(C)=O)[C@]5(CC)C=CCN6CC[C@]43[C@@H]65)C2)C1 [Vinblastine sulfate] | – |
| 35.58% | 33.32% | 36.10% | 34.14% | CCC1=C[C@@H]2CN(C1)Cc1c([nH]c3ccccc13)[C@@](C(=O)OC)(c1cc3c(cc1OC)N(C)[C@H]1[C@@](O)(C(=O)OC)[C@H](OC(C)=O)[C@]4(CC)C=CCN5CC[C@]31[C@@H]54)C2 [Vinorelbine tartrate] | – |
| 10.42% | 44.94% | 2.79% | 50.66% | CS(=O)(=O)c1ccc(C(=O)Nc2ccc(Cl)c(-c3ccccn3)c2)c(Cl)c1 [Vismodegib] | – |
| 3.50% | 48.13% | 7.67% | 48.24% | O=C(CCCCCCC(=O)Nc1ccccc1)NO [Vorinostat] | – |
| 0.04% | 49.73% | 0.58% | 51.75% | Oc1nc(-c2ccc(C(F)(F)F)cc2)nc2c1CSCC2 [XAV-939] | – |
| 11.20% | 44.58% | -8.84% | 56.43% | COc1cc2nccc(Oc3ccc(NC(=O)C4(C(=O)Nc5ccc(F)cc5)CC4)cc3)c2cc1OC [XL184_Cabozantinib] | – |
| -64.58% | 79.57% | -62.78% | 83.18% | COc1cc2c(Oc3ccc(NC(=O)C4(C(=O)Nc5ccc(F)cc5)CC4)cc3F)ccnc2cc1OCCCN1CCOCC1 [XL880 (Foretinib)] | – |
| 3.96% | 47.92% | 7.32% | 48.41% | COc1ccc(Cl)c(Nc2nc3ccccc3nc2NS(=O)(=O)c2cccc(NC(=O)C(C)(C)N)c2)c1 [XL-147] | – |
| -27.18% | 62.30% | -43.09% | 73.41% | COCCn1c2c([n+](Cc3cnccn3)c1C)C(=O)c1ccccc1C2=O [YM155] | – |
| -1.18% | 50.29% | 1.69% | 51.20% | FC(F)c1nc2ccccc2n1-c1nc(N2CCOCC2)nc(N2CCOCC2)n1 [ZSTK474] | – |
